ChEMBL document CHEMBL1133952, “Identification of E2F-1/Cyclin A antagonists” (Bioorg Med Chem Lett, 2001)
Residues, ends and D or L forms follow the SMILES beside them. *: point of attachment. Cyclohexanecarbonyl = O=C(C1CCCCC1)*; Cyclopentanecarbonyl = O=C(C1CCCC1)*; Cyclopropanecarbonyl = O=C(C1CC1)*; Isobutyryl = CC(C)C(=O)*; Piv = CC(C)(C)C(=O)*; Propionyl = CCC(=O)*; Bz = O=C(c1ccccc1)*

Assay: In vitro inhibitory activity against E2F-1/Cyclin A was determined using ELISA assay

| Compound | IC50 |
| --- | --- |
| CC(=O)N1CCC[C@H]1C(=O)N[C@H](C(=O)N[C@@H](CCCCN)C(=O)N[C@@H](CCCN=C(N)N)C(=O)N[C@@H](CCCCN)C(=O)N[C@@H](CC(C)C)C(=O)N[C@H](Cc1ccccc1)C(=O)NCC(=O)O)C(C)C | 250 nM |
| Ac-AKRKLFG-OH | 200 nM |
| CC(=O)N1CCC[C@H]1C(=O)N[C@H](C(=O)N[C@@H](CCCCN)C(=O)N[C@@H](CCCN=C(N)N)C(=O)N[C@H](CCCCN)C(=O)N[C@@H](CC(C)C)C(=O)N[C@@H](Cc1ccccc1)C(=O)NCC(=O)O)C(C)C | 5000 nM |
| CC(C)C[C@H](NC(=O)[C@H](CCCCN)NC(=O)[C@H](CCCN=C(N)N)NC(=O)[C@H](CCCCN)NC(=O)C1CCCCC1)C(=O)N[C@@H](Cc1ccccc1)C(=O)NCC(=O)O (Cyclohexanecarbonyl-KRKLFG-OH) | 450 nM |
| CC(=O)N1CCC[C@H]1C(=O)N[C@H](C(=O)N[C@@H](CCCCN)C(=O)N[C@@H](CCCN=C(N)N)C(=O)N[C@@H](CCCCN)C(=O)N[C@@H](CC(C)C)C(=O)N[C@@H](Cc1ccccc1)C(=O)NCC(=O)O)C(C)C | 100 nM |
| CC(C)C[C@H](NC(=O)[C@H](CCCCN)NC(=O)[C@H](CCCN=C(N)N)NC(=O)[C@H](CCCCN)NC(=O)c1ccccc1)C(=O)N[C@@H](Cc1ccccc1)C(=O)NCC(=O)O (Bz-KRKLFG-OH) | 1500 nM |
| CC(C)C[C@H](NC(=O)[C@H](CC(N)=O)NC(=O)[C@H](CCCN=C(N)N)NC(=O)C(CS)NC(=O)[C@H](C)NC(=O)C(N)CO)C(=O)N[C@@H](Cc1ccccc1)C(=O)NCC(=O)O (single isomer, unassigned) | 200 nM |
| H-PAKRKLFG-OH | 100 nM |
| H-PVKARADL-OH | > 100000 nM |

Further lines, results first:

| IC50 | Compound |
| --- | --- |
| 45000 nM | CC(=O)N[C@@H](CCCCN)C(=O)N[C@@H](CC(C)C)C(=O)N[C@@H](Cc1ccccc1)C(=O)NCC(=O)O (Ac-KLFG-OH) |
| 150 nM | CC(C)C[C@H](NC(=O)[C@H](CCCCN)NC(=O)[C@H](CCCN=C(N)N)NC(=O)[C@H](CCCCN)NC(=O)C(C)C)C(=O)N[C@@H](Cc1ccccc1)C(=O)NCC(=O)O (Isobutyryl-KRKLFG-OH) |
| 150 nM | CC(C)C[C@H](NC(=O)[C@H](CCCCN)NC(=O)[C@H](CCCN=C(N)N)NC(=O)[C@H](CCCCN)NC(=O)C(C)(C)C)C(=O)N[C@@H](Cc1ccccc1)C(=O)NCC(=O)O (Piv-KRKLFG-OH) |
| 1000 nM | Ac-KRKLFG-OH |
| 30000 nM | CC(=O)N[C@@H](CCCN=C(N)N)C(=O)N[C@@H](CCCCN)C(=O)N[C@@H](CC(C)C)C(=O)N[C@@H](Cc1ccccc1)C(=O)NCC(=O)O |
| 450 nM | CCC(=O)N[C@@H](CCCCN)C(=O)N[C@@H](CCCN=C(N)N)C(=O)N[C@@H](CCCCN)C(=O)N[C@@H](CC(C)C)C(=O)N[C@@H](Cc1ccccc1)C(=O)NCC(=O)O (Propionyl-KRKLFG-OH) |
| 100 nM | CC(C)C[C@H](NC(=O)[C@H](CC(=O)O)NC(=O)[C@H](CC(C)C)NC(=O)[C@H](CCCN=C(N)N)NC(=O)[C@H](CCCN=C(N)N)NC(=O)[C@H](CCCCN)NC(=O)[C@@H](NC(=O)[C@@H]1CCCN1)C(C)C)C(=O)O |
| 45000 nM | CC(=O)N1CCC[C@H]1C(=O)N[C@H](C(=O)N[C@@H](CCCCN)C(=O)N[C@H](CCCN=C(N)N)C(=O)N[C@@H](CCCCN)C(=O)N[C@@H](CC(C)C)C(=O)N[C@@H](Cc1ccccc1)C(=O)NCC(=O)O)C(C)C |
| 150 nM | CC(C)C[C@H](NC(=O)[C@H](CCCCN)NC(=O)[C@H](CCCN=C(N)N)NC(=O)[C@H](CCCCN)NC(=O)C1CC1)C(=O)N[C@@H](Cc1ccccc1)C(=O)NCC(=O)O (Cyclopropanecarbonyl-KRKLFG-OH) |
| 350 nM | CC(C)C[C@H](NC(=O)[C@H](CCCCN)NC(=O)[C@H](CCCN=C(N)N)NC(=O)[C@H](CCCCN)NC(=O)C1CCCC1)C(=O)N[C@@H](Cc1ccccc1)C(=O)NCC(=O)O (Cyclopentanecarbonyl-KRKLFG-OH) |
